In patent US11795177B2, “Substituted quinoline analogs as aldehyde dehydrogenase 1A1 (ALDH1A1) inhibitors” (THE UNITED STATES OF AMERICA, AS REPRESENTED BY THE …, priority 2017, dated 2023):

Tested on: MIA PaCa-2 cells
Test: MIA PaCa2 cell-based assay (1,536-well high-content imaging ALDEFLUOR assay)
Design: species or system human
Conditions: Homo sapiens, 0.5 h, ALDEFLUOR BAAA substrate 500 nM, 30 minutes
Method: Example 359. MIA PaCa2 Cell-Based Assay (In Vitro Assay)
1,536-Well High-Content Imaging ALDEFLUOR Assay
The ALDEFLUOR™ kit was purchased from […] Technologies (Vancouver, Canada; #01700). MIA PaCa-2 cells (5 μL; 1,000 cells/well) were dispensed into black, optical quality (cyclic olefin copolymer) clear bottom, medium binding TC treated 1,536-well plates (Aurora Microplates, Whitefish Mont.) using a Multidrop Combi dispenser (ThermoFisher) and incubated overnight (37° C., 5% CO2, 85% RH). Media (RPMI 1640 (Life Technologies, Carlsbad, Calif.), supplemented with 2 mM L-Glutamine (Life Technologies), 10% HyClone™ fetal bovine serum (FBS, GE Healthcare, Piscataway, N.J.) and 100 U/mL penicillin and 100 μg/mL streptomycin (Life Technologies)) was subsequently removed by centrifuging plates upside down using a plate adaptor to collect media. A solution of BAAA substrate ([…] Technologies) and Hoechst 33342 (ThermoFisher, final concentrations of 500 nM and 0.5 nM, respectively) in ALDEFLUOR™ buffer ([…] Technologies #01700) was dispensed onto cells using a Multidrop Combi followed by immediate transfer (23 nL) of compound or control solutions using a Wako Pin-tool (final percentage of DMSO in the cell plates was 0.5%). Unless otherwise noted, all compounds were assayed as 16-point dilutions spanning a final concentration range of 1.4 nM to 47.8 μM. The neutral and positive assay controls were DMSO and DEAB (4.6 μM), respectively. Cells were incubated for 30 minutes or the indicated amount of time at 37° C., 5% CO2, 85% RH to allow the conversion of BAAA into BAA. Supernatant was subsequently removed by centrifugation as described above, then ALDEFLUOR™ buffer (3 μl) was dispensed by Multidrop Combi before imaging on an IN Cell 2200 (GE Healthcare).
The above assay was modified for an online robotic screening system. After cell plating and overnight incubation, 4 μL of media were removed using a 64-tip metal aspirator head on a Wako aspirator station, leaving 1 μL remaining in the well, followed by a 4 μL dispense of BAAA and Hoechst 33342 in ALDEFLUOR™ buffer, for a final concentration of 500 nM and 0.5 nM, respectively Immediately following the dispense, 23 nL of compound or control solutions were transferred using a Wako Pin-tool. Cells were incubated for 30 minutes at 37° C., 5% CO2, 85% RH, followed by a 4 μL media removal using the Wako aspirator, and a subsequent 3 μL addition of ALDEFLUOR™ buffer. Plates were then immediately read on the IN Cell 2200 as described below.
Image Acquisition and Analysis
For images captured on the IN Cell 2200 widefield automated microscope, a 10×0.45 NA Plan Apo objective lens was used to capture the entire well of the 1,536-well plate using standard DAPI (390/18×, 432/48 m) and FITC (475/28×, 525/48 m) filter sets at 50 msec and 100 msec exposures, respectively. Images were subsequently analyzed using IN Cell Investigator v1.6.2 analysis software's canned Multi-Target Analysis algorithm (GE Healthcare). Hoechst stained nuclei were identified using top hat segmentation with a minimum area of 75 μm^2 and sensitivity of 93. BAA-retaining cells captured via FITC channel, were identified using multiscale top hat segmentation with a minimum area of 100 μm^2 and a sensitivity setting of 16. […] Data were plotted using GraphPad Prism software (GraphPad, San Diego, Calif.).

| Compound | IC50 [µM] |
| --- | --- |
| COc1cc2ncc(C(=O)N3CCN(C(=O)C4CC4)CC3)c(N3CCC4(CC3)OCCO4)c2cc1OC [Example 48, (4-(cyclopropanecarbonyl)piperazin-1-yl)(6,7-dimethoxy-4-(1,4-dioxa-8-azaspiro[4.5]decan-8-yl)quinolin-3-yl)methanone] | 1 to 10 |
| COc1ccc2ncc(CN3CCN(C(=O)C4CC4)CC3)c(N3CCC4(CC3)OCCO4)c2c1 [Example 57, Cyclopropyl(4-((6-methoxy-4-(1,4-dioxa-8-azaspiro[4.5]decan-8-yl)quinolin-3-yl)methyl)piperazin-1-yl)methanone] | > 10 |
| O=C(c1cnc2ccc(F)cc2c1N1CCC2(CC1)CC2)N1CCN(C(=O)C2CC2)CC1 [Example 59, (4-(cyclopropanecarbonyl)piperazin-1-yl)(6-fluoro-4-(6-azaspiro[2.5]octan-6-yl)quinolin-3-yl)methanone] | > 10 |
| O=C(c1cnc2ccc(F)cc2c1N1CCC2(CCCC2)CC1)N1CCN(C(=O)C2CC2)CC1 [Example 62, (4-(cyclopropanecarbonyl)piperazin-1-yl)(6-fluoro-4-(8-azaspiro[4.5]decan-8-yl)quinolin-3-yl)methanone] | > 10 |
| O=C(c1cnc2ccc(F)cc2c1N1CCC(F)(F)CC1)N1CCN(C(=O)C2CC2)CC1 [Example 63, (4-(cyclopropanecarbonyl)piperazin-1-yl)(4-(4,4-difluoropiperidin-1-yl)-6-fluoroquinolin-3-yl)methanone] | > 10 |
| CC1(C#N)CCN(c2c(C(=O)N3CCN(C(=O)C4CC4)CC3)cnc3ccc(F)cc23)CC1 [Example 64, 1-(3-(4-(cyclopropanecarbonyl)piperazine-1-carbonyl)-6-fluoroquinolin-4-yl)-4-methylpiperidine-4-carbonitrile] | 1 to 10 |
| CC1(C)CCN(c2c(C(=O)N3CCN(C(=O)C4CC4)CC3)cnc3ccc(F)cc23)CC1 [Example 65, (4-(cyclopropanecarbonyl)piperazin-1-yl)(4-(4,4-dimethylpiperidin-1-yl)-6-fluoroquinolin-3-yl)methanone] | 1 to 10 |
| O=C(c1cnc2ccc(F)cc2c1N1CCC2(CCCO2)CC1)N1CCN(C(=O)C2CC2)CC1 [Example 66, (4-(cyclopropanecarbonyl)piperazin-1-yl)(6-fluoro-4-(1-oxa-8-azaspiro[4.5]decan-8-yl)quinolin-3-yl)methanone] | 1 to 10 |
| COc1ccc2ncc(C(=O)N3CCN(C(=O)C4CC4)CC3)c(N3CCC(=O)CC3)c2c1 [Example 67, 1-(3-(4-(cyclopropanecareonyl)piperazine-1-carbonyl)-6-methoxyquinolin-4-yl)piperidin-4-one] | > 10 |
| O=C(c1cnc2ccc(F)cc2c1N1CCCCCC1)N1CCN(C(=O)C2CC2)CC1 [Example 71, (4-(azepan-1-yl)-6-fluoroquinolin-3-yl)(4-(cyclopropanecarbonyl)piperazin-1-yl)methanone] | 1 to 10 |
| O=C(c1cnc2ccc(F)cc2c1N1CCC(c2ccccc2)CC1)N1CCN(C(=O)C2CC2)CC1 [Example 72, (4-(cyclopropanecarbonyl)piperazin-1-yl)(6-fluoro-4-(4-phenylpiperidin-1-yl)quinolin-3-yl)methanone] | > 10 |
| Cc1cc(F)cc2c(N3CCC4(CC3)OCCO4)c(C(=O)N3CCN(C(=O)C4CC4)CC3)cnc12 [Example 73, (4-(cyclopropanecarbonyl)piperazin-1-yl)(6-fluoro-8-methyl-4-(1,4-dioxa-8-azaspiro[4.5]decan-8-yl)quinolin-3-yl)methanone] | 1 to 10 |
| O=C(c1cnc2ccc(F)cc2c1N1CCC2(CCCCC2)CC1)N1CCN(C(=O)C2CC2)CC1 [Example 75, (4-(cyclopropanecarbonyl)piperazin-1-yl)(6-fluoro-4-(3-azaspiro[5.5]undecan-3-yl)quinolin-3-yl)methanone] | 1 to 10 |
| O=C(c1cnc2ccc(F)cc2c1N1CCC(F)CC1)N1CCN(C(=O)C2CC2)CC1 [Example 76, (4-(cyclopropanecarbonyl)piperazin-1-yl)(6-fluoro-4-(4-fluoropiperidin-1-yl)quinolin-3-yl)methanone] | > 10 |
| CC1(C)CC=C(c2c(C(=O)N3CCN(C(=O)C4CC4)CC3)cnc3ccc(F)cc23)CC1 [Example 77, (4-(cyclopropanecarbonyl)piperazin-1-yl)(4-(4,4-dimethylcyclohex-1-en-1-yl)-6-fluoroquinolin-3-yl)methanone] | < 0.5 |
| O=C(c1cnc2c(F)cc(F)cc2c1N1CCC2(CC1)OCCO2)N1CCN(C(=O)C2CC2)CC1 [Example 78, (4-(cyclopropanecarbonyl)piperazin-1-yl)(6,8-difluoro-4-(1,4-dioxa-8-azaspiro[4.5]decan-8-yl)quinolin-3-yl)methanone] | 1 to 10 |
| O=C(c1cnc2ccc(F)cc2c1N1CCC2(CCCCC2)C1)N1CCN(C(=O)C2CC2)CC1 [Example 79, (4-(cyclopropanecarbonyl)piperazin-1-yl)(6-fluoro-4-(2-azaspiro[4.5]decan-2-yl)quinolin-3-yl)methanone] | > 10 |
| O=C(c1cnc2ccc(F)cc2c1N1CC2(CCCCC2)C1)N1CCN(C(=O)C2CC2)CC1 [Example 80, (4-(cyclopropanecarbonyl)piperazin-1-yl)(6-fluoro-4-(2-azaspiro[3.5]nonan-2-yl)quinolin-3-yl)methanone] | > 10 |
| CCC1(CC)CCN(c2c(C(=O)N3CCN(C(=O)C4CC4)CC3)cnc3ccc(F)cc23)CC1 [Example 81, (4-(cyclopropanecarbonyl)piperazin-1-yl)(4-(4,4-diethylpiperidin-1-yl)-6-fluoroquinolin-3-yl)methanone] | 1 to 10 |
| O=C(c1cnc2ccc(F)cc2c1N1CC2CCC(C2)C1)N1CCN(C(=O)C2CC2)CC1 [Example 82, (4-(3-azabicyclo[3.2.1]octan-3-yl)-6-fluoroquinolin-3-yl)(4-(cyclopropanecarbonyl)piperazin-1-yl)methanone] | > 10 |
| O=C(c1cnc2ccc(F)cc2c1N1C[C@H]2CCCC[C@H]2C1)N1CCN(C(=O)C2CC2)CC1 [Example 83, (4-(cyclopropanecarbonyl)piperazin-1-yl)(6-fluoro-4-((3aR*,7aS*)-hexahydro-1H-isoindol-2(3H)-yl)quinolin-3-yl)methanone] | > 10 |
| CC(C)(C)c1ccc(-c2c(C(=O)N3CCN(C(=O)C4CC4)CC3)cnc3ccc(F)cc23)cc1 [Example 84, (4-(4-(tert-butyl)phenyl)-6-fluoroquinolin-3-yl)(4-(cyclopropanecarbonyl)piperazin-1-yl)methanone] | < 0.5 |
| CC1(C#N)CCN(c2c(C(=O)N3CCN(S(=O)(=O)C4CC4)CC3)cnc3ccc(F)cc23)CC1 [Example 85, 1-(3-(4-(cyclopropylsulfonyl)piperazine-1-carbonyl)-6-fluoroquinolin-4-yl)-4-methylpiperidine-4-carbonitrile] | > 10 |
| CC1(C#N)CCN(c2c(C(=O)N3CCN(S(C)(=O)=O)CC3)cnc3ccc(F)cc23)CC1 [Example 86, 1-(6-fluoro-3-(4-(methylsulfonyl)piperazine-1-carbonyl)quinolin-4-yl)-4-methylpiperidine-4-carbonitrile] | 1 to 10 |
| CCC(=O)N1CCN(C(=O)c2cnc3ccc(F)cc3c2N2CCC(C)(C#N)CC2)CC1 [Example 91, 1-(6-fluoro-3-(4-propionylpiperazine-1-carbonyl)quinolin-4-yl)-4-methylpiperidine-4-carbonitrile] | 1 to 10 |
| CC(C)C(=O)N1CCN(C(=O)c2cnc3ccc(F)cc3c2N2CCC(C)(C#N)CC2)CC1 [Example 92, 1-(6-fluoro-3-(4-isobutyrylpiperazine-1-carbonyl)quinolin-4-yl)-4-methylpiperidine-4-carbonitrile] | 1 to 10 |
| O=C(c1cnc2cc(F)c(F)cc2c1N1CCC2(CC1)OCCO2)N1CCN(C(=O)C2CC2)CC1 [Example 122, (4-(cyclopropanecarbonyl)piperazin-1-yl)(6,7-difluoro-4-(1,4-dioxa-8-azaspiro[4.5]decan-8-yl)quinolin-3-yl)methanone] | 1 to 10 |
